The test system of one test is animal pain models. To be noted: in vivo, iv; cited from earlier work.
Test [1] has as its system eEPSCs in the dorsal horn of rat spinal cord. To be noted: cited from earlier work.
The subject of test [2] is model of peripheral neuropathy in the rat. To be noted: ref Franek et al., 2004; cited from earlier work. An excerpt:
Furthermore, GABAB receptor activation inhibits the activity of N-type CaV channels (CaV2.2) and inhibition of N-type channels expressed by nocicept ...

In test [3] the test system is CaV current in rat sensory neurons (DRG). In words: cells. Format: cell-based, rat (adult male Sprague Dawley). To be noted: for inhibition at 30 µM: Rattus norvegicus, Neuron.

“Also recorded” adds a separate entry of the source. Where two headings read alike, the source gives them in different places.

As usually defined, the inhibition is how much of the control response was suppressed.

Turning to ziconotide [reference compound], the “effect on neuropathic pain” value with animal pain models is given as “did not decrease neuropathic pain”.

On to `NCC(CC(=O)O)c1ccc(Cl)cc1` (stereo not shown) [baclofen, reference compound], for which, in test [1], the “effect on eEPSCs / EPSPs in dorsal horn” value is given as “strongly inhibited; also recorded: almost completely blocked”. In test [2], the analgesic effect entry was “analgesic effects”. Moreover, the “sensory neurons with CaV current inhibited by baclofen” value in test [3] was found to be 95%. Further, the “voltage dependence of CaV current inhibition” value in test [3] is “voltage-dependent”. Moreover, the inhibition at 30 µM in test [3] (read-out: CaV current inhibition in the neuron with the largest Vc1.1 and RgIA response) is 22%; in test [3] (read-out: CaV current inhibition in the neuron with the largest baclofen response), 34%; in test [3] (read-out: baclofen-induced CaV current inhibition in seven other neurons), 20 to 24%; in test [3] (read-out: postpulse CaV current inhibition) it was 12 ± 5.5%; in test [3] (read-out: prepulse CaV current inhibition), 19.2 ± 6.8%.
